Source: article PMC8196580, “Identification of Kaurane-Type Diterpenes as Inhibitors of Leishmania Pteridine Reductase I” (Molecules, 2021)
Like-named read-outs stand apart in the source and are kept apart here.

What was measured:
L. major [1] = system: L. major; set-up: method as in ChEMBL; details: ref ChEMBL, cited from earlier work
L. major [2] = assay: ChEMBL dataset of pIC50 values against L. major used for the RF model (Table S1); assay type: cell-based, Leishmania major; note: call rule not given here
[3] = ChemBL structures with pIC50 values used for Random forest model construction, L. major
[4] = Active/Inactive class assigned to the ChEMBL pIC50 value for Random forest model construction, ref ChEMBL
[5] = ChemBL structures with pIC50 values used for Random forest model construction (Table S1)
[6] = Active/Inactive class assigned to ChemBL structures for Random forest model construction (Table S1)

| Compound | pIC50 Value (L. major [1]; [3]) | Outcome (L. major [2]; [4]) | pIC50 Value (L. major [1]; [5]) | Outcome (L. major [2]; [6]) |
| --- | --- | --- | --- | --- |
| O=C(CCl)N1c2cc(Cl)ccc2Oc2ccc(Cl)cc21 [CHEMBL3759123] | 5.02 | Active |  |  |
| Clc1ccc(C2=NN3C(c4ccccc4)=NNC3S2)c(Cl)c1 (centres unmarked) [CHEMBL1256801] | 4.00 | Inactive |  |  |
| O=[N+]([O-])c1cccc(-c2c(-c3ccc(F)cc3)nc3ccccn23)c1 [CHEMBL2151874] | 4.00 | Inactive |  |  |
| COc1cc(COP(N)(=O)N(CCCl)CCCl)ccc1[N+](=O)[O-] (centres unmarked) [CHEMBL1256966] | 4.52 | Inactive |  |  |
| COc1cc(OC)c2c(C)[n+](-c3ccc(OC(C)=O)cc3)c(C)cc2c1.F[B-](F)(F)F [CHEMBL480761] | 4.00 | Inactive |  |  |
| Fc1ccccc1-c1nc2ccccn2c1-c1cccnc1 [CHEMBL2151877] | 4.46 | Inactive |  |  |
| O=C(c1cccc(Cl)c1)N1CCN(c2nnc(-c3ccc([N+](=O)[O-])s3)s2)CC1 [CHEMBL458778] | 4.30 | Inactive |  |  |
| Cc1cc(C2=NNC(c3cc4cccc(C)c4nc3Cl)C2)c(C)s1 (centres unmarked) [CHEMBL2235721] |  |  | 5.58 | Active |
| COc1ccc(/C=N/NC(N)=S)cc1OCc1cn(CC(=O)c2ccc(C)cc2)nn1 [CHEMBL4173573] |  |  | 5.66 | Active |
| NP(=O)(OCc1ccc([N+](=O)[O-])cn1)N(CCCl)CCCl (centres unmarked) [CHEMBL2158073] | 5.08 | Active |  |  |
| O=[N+]([O-])c1ccc2[nH]c(-c3c[nH]c4ccccc34)nc2c1 [CHEMBL2297905] |  |  | 5.65 | Active |
| CCNC(=N)c1ccc(N2CCN(c3nnc(-c4ccc([N+](=O)[O-])o4)s3)CC2)cc1.Cl [CHEMBL1783202] | 4.48 | Inactive |  |  |
| CN(C)CCNc1nccn2c(-c3ccncc3)c(-c3ccccc3)nc12 [CHEMBL3634363] | 4.16 | Inactive |  |  |
| COc1ccccc1-c1nnc(-c2ccc(C(=O)N/N=C/c3ccc(Cl)cc3)cc2)o1 [CHEMBL4060153] | 4.47 | Inactive |  |  |
| C[C@@H]([C@H]1CC[C@H]2[C@@H]3CC[C@H]4C(=O)C(NC=O)=CC[C@]4(C)[C@H]3CC[C@]12C)N(C)C [CHEMBL496489] | 4.65 | Inactive |  |  |
| Cn1c([N+](=O)[O-])cnc1-c1nnc(N2CCN(C(=O)c3ccc(Br)s3)CC2)s1 [CHEMBL520309] | 4.80 | Inactive |  |  |
| Cc1ccc2cc(/C=C/C(=O)c3ccc(I)s3)c(Cl)nc2c1 [CHEMBL1940860] |  |  | 5.72 | Active |
| O=C(CCl)N1c2ccccc2Oc2ccc(C(F)(F)F)cc21 [CHEMBL3759243] | 5.02 | Active |  |  |
| Cc1ccc2cc(/C=C/C(=O)c3sccc3Cl)c(Cl)nc2c1 [CHEMBL1940855] |  |  | 5.77 | Active |
| c1ccc(-c2nc3c(NCCN4CCOCC4)nccn3c2-c2ccncc2)cc1 [CHEMBL3634365] | 4.63 | Inactive |  |  |
| CC1=C(C(=O)Nc2ccc(C(=O)/C=C/c3cccc([N+](=O)[O-])c3)cc2)C(c2cccc(O)c2)NC(=S)N1 (centres unmarked) [CHEMBL3786907] |  |  | 5.95 | Active |
| c1ccc(-c2nc3ccccn3c2-c2cccnc2)cc1 [CHEMBL2151869] | 4.65 | Inactive |  |  |

| Compound | pIC50 Value (L. major [1]; [3]) | Outcome (L. major [2]; [4]) | pIC50 Value (L. major [1]; [5]) | Outcome (L. major [2]; [6]) |
| --- | --- | --- | --- | --- |
| Cc1ccc2cc(/C=C/C(=O)c3ccsc3)c(Cl)nc2c1 [CHEMBL1940850] |  |  | 5.55 | Active |
| C[C@@H](c1ncncc1F)[C@](O)(Cn1cncn1)c1ccc(F)cc1F [CHEMBL638] | 5.21 | Active |  |  |
| COc1ccc(-c2csc3c2C2=NCCN2C=N3)cc1OC [CHEMBL1256890] | 4.00 | Inactive |  |  |
| c1ccc(Nc2c3ccccc3nc3ccccc23)cc1 [CHEMBL49436] |  |  | 5.57 | Active |
| CC(C)C1=CC(=O)C2=C(CC[C@H]3C(C)(C)CCC[C@]23C)C1=O [CHEMBL3355361] |  |  | 6.74 | Active |
| COc1cc(OCC=C(C)C)ccc1C(=O)/C=C/c1ccc([N+](=O)[O-])cc1 [CHEMBL4161584] |  |  | 5.48 | Active |
| Clc1ccc2c(N3CCN(Cc4ccccc4)CC3)ccnc2c1 [CHEMBL1256765] | 4.21 | Inactive |  |  |
| O=[N+]([O-])c1cn2c(n1)OC[C@H](Oc1ccc(OC(F)(F)F)cc1)C2 [CHEMBL4078293] |  |  | 5.63 | Active |
| NC(=O)c1ccc(-c2c(-c3ccccc3)nc3ccccn23)cc1 [CHEMBL2151865] | 4.57 | Inactive |  |  |
| O=C(CCl)Nc1cc(Cl)ccc1Oc1ccccc1 [CHEMBL3759632] | 4.37 | Inactive |  |  |
| c1cncc(-c2nc3ccccc3[nH]2)c1 [CHEMBL83103] |  |  | 5.48 | Active |
| Cc1cccc2oc(=O)c3c(c12)O[C@@H](C)[C@@]3(C)CC(=O)[C@@H]1OC1(C)C [CHEMBL465559] | 4.43 | Inactive |  |  |
| O=C(/C=C/c1ccc(-n2ccnc2)cc1)c1ccc(Cl)cc1Cl [CHEMBL570849] |  |  | 5.68 | Active |
| CCCCN(CCCC)c1ccc(Nc2c3ccccc3nc3ccccc23)cc1 [CHEMBL312941] |  |  | 6.46 | Active |
| CCCCCCNc1ccc(Nc2c3ccc(N(C)C)cc3nc3cc(N(C)C)ccc23)cc1 [CHEMBL86823] |  |  | 6.80 | Active |
| Fc1ccc(-c2nc3ccccc3[nH]2)cc1 [CHEMBL1596095] |  |  | 5.43 | Active |
| COc1cccc(-c2nc3ccc([N+](=O)[O-])cc3[nH]2)c1 [CHEMBL2298018] |  |  | 5.52 | Active |
| CC(=O)N1CCN(c2ccc(OC[C@H]3CO[C@](Cn4ccnc4)(c4ccc(Cl)cc4Cl)O3)cc2)CC1 (racemic) [CHEMBL75] | 4.62 | Inactive |  |  |
| CC(=O)C1=C(C)NC(=O)NC1c1cccc(C)c1 (centres unmarked) [CHEMBL3786214] |  |  | 5.44 | Active |
| CCCCCCN(C)c1ccc(Nc2c3ccccc3nc3ccccc23)cc1OC [CHEMBL88682] |  |  | 6.22 | Active |
| COc1cc(/C=N\NC(N)=S)ccc1OCc1cn(CC(=O)c2ccccc2)nn1 [CHEMBL4175538] | 5.27 | Active |  |  |
| CC(C)C1=Cc2ccc3c(c2C(=O)C1=O)C(=O)CCC3(C)C [CHEMBL485479] | 4.75 | Inactive |  |  |

| Compound | pIC50 Value (L. major [1]; [3]) | Outcome (L. major [2]; [4]) | pIC50 Value (L. major [1]; [5]) | Outcome (L. major [2]; [6]) |
| --- | --- | --- | --- | --- |
| O=[N+]([O-])c1ccc(-c2nnc(NCc3cn(Cc4ccccc4)nn3)s2)o1 [CHEMBL1951522] | 4.71 | Inactive |  |  |
| COc1cc(/C=N/NC(=O)c2ccccc2OC)cc(OC)c1 [CHEMBL2382053] | 4.27 | Inactive |  |  |
| COc1c(O)ccc2c1C(=O)C(C)=CC2=O [CHEMBL2071233] | 4.03 | Inactive |  |  |
| C/C(=N/NC(N)=S)c1ccc(OCc2cn(CC(=O)c3ccc(Br)cc3)nn2)cc1 [CHEMBL4166113] |  |  | 6.00 | Active |
| O=C(c1ccc(Br)s1)N1CCN(c2nnc(-c3ccc([N+](=O)[O-])o3)s2)CC1 [CHEMBL458771] | 4.88 | Inactive |  |  |
| COc1ccccc1C(=O)N/N=C/c1ccc([N+](=O)[O-])cc1 [CHEMBL2382044] | 4.50 | Inactive |  |  |
| COc1cccc(/C=N/NC(=O)c2ccc(-c3nnc(-c4ccccc4OC)o3)cc2)c1 [CHEMBL4098544] | 4.10 | Inactive |  |  |
| COc1cccc(-c2nc3ccccc3[nH]2)c1 [CHEMBL2297908] |  |  | 5.46 | Active |
| Fc1cccc(Cl)c1Cc1nn2c(-c3ccccc3)nnc2s1 [CHEMBL1256825] | 4.00 | Inactive |  |  |
| CCOC(=O)C1=C(C)NC(=S)NC1c1cccc(O)c1 (centres unmarked) [CHEMBL236789] |  |  | 5.65 | Active |
| COc1ccccc1-c1nnc(-c2ccc(C(=O)N/N=C/c3ccc(O)c(O)c3)cc2)o1 [CHEMBL4092817] |  |  | 6.02 | Active |
| CCC(C)NC(=N)c1ccc(N2CCN(c3nnc(-c4ccc([N+](=O)[O-])o4)s3)CC2)cc1.Cl (centres unmarked) [CHEMBL1783205] | 4.48 | Inactive |  |  |
| Cn1cc(/C=N/c2ccc(Cl)cc2)c2ccccc21 [CHEMBL2071555] |  |  | 5.67 | Active |
| CCCN1CSC(=S)N(C(C)c2ccccc2)C1 (centres unmarked) [CHEMBL4290968] | 4.62 | Inactive |  |  |
| O=C(O)CN1CN(CCO)CSC1=S [CHEMBL4290046] | 4.40 | Inactive |  |  |
| Cc1ccc2cc(/C=C/C(=O)c3ccc(Br)s3)c(Cl)nc2c1 [CHEMBL1940859] |  |  | 5.64 | Active |
| CCCCCCN(C)c1ccc(Nc2c3ccc(N(C)C)cc3nc3cc(N(C)C)ccc23)cc1 [CHEMBL88461] |  |  | 7.15 | Active |
| CCC/C=C/C=C/c1nc2cc(OC)ccc2n2cccc12 [CHEMBL3260211] |  |  | 5.55 | Active |
| Cc1ccc(Nc2ncnc3ccc([N+](=O)[O-])cc23)cc1C [CHEMBL3758240] | 4.45 | Inactive |  |  |
| CC1=C(C(=O)Nc2ccc(C(=O)/C=C/c3ccc(O)cc3)cc2)C(c2cccc(O)c2)NC(=S)N1 (centres unmarked) [CHEMBL3785704] |  |  | 5.98 | Active |
